Measurements taken from patent publication US20230321140A1, “MULTIPLE MEDIATORS TARGETED MULTIFUNCTIONAL NANOPARTICLES AND USES THEREOF” (The Trustees of Columbia University in the City of New York, priority 2022, published 2023).

Tests used:
calf thymus DNA = assay: PicoGreen DNA binding affinity assay; settings: TE buffer without FBS; calf thymus DNA 0.5 μg/mL
Protocol: FIGS. 2A-B show DNA binding affinity of NPs at different NP:DNA mass ratios (see legend) in TE buffer without Fetal Bovine Serum (FBS) (A) and with 10% FBS (B). [Calf thymus DNA]=0.5 μg/mL. (C) Cytotoxicity of NPs to RAW 264.7 cells. (D) Colocalization of FITC-labeled TA-Zn-Gen NPs and Cy5-labeled CpG in lysosomes (CLSM images). Scale bar, 10 μm. Quant-iT PicoGreen (12.5 μL) and calf thymus DNA ([…], 25 μL) were mixed with 1×TE buffer (10 mL) in the dark. NPs at different concentrations in 100 μL together with 100 μL of the above solution were added to a 96-well black plate and incubated at 37° C. for 30 min. The fluorescence intensity of the Picogreen-DNA complex at 520 nm was measured with a multiwell plate reader via excitation at 490 nm.

E. coli = assay: Antibacterial effect (OD 600 nm); assay type: cell-based, Escherichia coli; settings: 6 h and 12 h
Protocol: E. coli was used to investigate the anti-bacterial effect of NPs. E. coli diluted in Luria-Bertani liquid medium were seeded in a 96-well plate at a density of 10^6/mL and were treated with NPs at different concentrations. After 6 h and 12 h of incubation with NPs at 37° C., the proliferation of bacteria was determined with a multiwell plate reader by measuring the OD at 600 nm.

Compound | DNA binding affinity (calf thymus DNA) | antibacterial activity, NPs versus free components (E. coli)
O=C(OC[C@H]1O[C@@H](OC(=O)c2cc(O)c(O)c(OC(=O)c3cc(O)c(O)c(O)c3)c2)[C@H](OC(=O)c2cc(O)c(O)c(OC(=O)c3cc(O)c(O)c(O)c3)c2)[C@@H](OC(=O)c2cc(O)c(O)c(OC(=O)c3cc(O)c(O)c(O)c3)c2)[C@@H]1OC(=O)c1cc(O)c(O)c(OC(=O)c2cc(O)c(O)c(O)c2)c1)c1cc(O)c(O)c(OC(=O)c2cc(O)c(O)c(O)c2)c1 [tannic acid] | also exhibited DNA binding | slight antibacterial activity at a high concentration
gentamicin | – | potent concentration-dependent antibacterial effect
